Our source for the IC50 values is ChEMBL document CHEMBL1134618, “Synthesis and biological evaluation of sialylmimetics as rotavirus inhibitors” (J Med Chem, 2001).

Assay [1] deals with Rotavirus. Description: Inhibitory activity against bovine NCDV Rotavirus strain. The format is functional, organism-based.
The subject of assay [2] is Rotavirus. The assay can be described thus: Inhibitory activity against human Wa Rotavirus strain. Type of assay: functional, organism-based.

In the case of `CCC(SC[C@@H]1O[C@@H](OC)[C@@H](O)[C@@H](O)[C@@H]1O)C(=O)O` (stereo partly specified), the IC50 in the assay with Rotavirus [1] and in the assay with Rotavirus [2] was > 25 mM throughout. In the case of `CO[C@@H]1O[C@@H](CSC(CCO)C(=O)O)[C@@H](O)[C@H](O)[C@@H]1O` (stereo partly specified), the half-maximal inhibitory concentration (IC50) in the assay with Rotavirus [1] and in the assay on Rotavirus [2] was > 25 mM throughout. In the case of `CO[C@@H]1O[C@@H](CSC(C(=O)O)c2ccccc2)[C@@H](O)[C@H](O)[C@@H]1O` (stereo partly specified), the concentration for half-maximal inhibition (IC50) with Rotavirus [1] and with Rotavirus [2] was > 25 mM in each case. As for `CCC(SC[C@@H]1O[C@@H](OC)[C@@H](O)[C@@H](O)[C@H]1O)C(=O)O` (stereo partly specified), the half-maximal inhibitory concentration (IC50) is 25 mM in the assay with Rotavirus [1] and > 25 mM with Rotavirus [2]. The matching figures for `CO[C@@H]1O[C@@H](CSC(C(=O)O)c2ccccc2)[C@H](O)[C@H](O)[C@@H]1O` (stereo partly specified): > 25 mM and > 25 mM. As for `CO[C@@H]1O[C@@H](CSC(CCO)C(=O)O)[C@H](O)[C@H](O)[C@@H]1O` (stereo partly specified), the IC50 in the assay with Rotavirus [1] and in the assay on Rotavirus [2] was > 25 mM each time. For the compound `COC1OC(CSC2(C(=O)O)CC(O)C(NC(C)=O)C([C@H](O)[C@H](O)CO)O2)C(O)C(O)C1O` (stereo partly specified), the IC50 in the assay with Rotavirus [2] is > 25 mM. Regarding `COC1OC(CSC(C)C(=O)O)C(O)C(O)C1O` (stereo unspecified), the 50% inhibitory concentration (IC50) with Rotavirus [1] and in the assay on Rotavirus [2] was > 25 mM throughout.

As to `CCC(SC[C@@H]1O[C@@H](O[C@H]2[C@H](O)[C@H](O)[C@H](OC)O[C@H]2CO)[C@@H](O)[C@@H](O)[C@H]1O)C(=O)O` (stereo partly specified), the 50% inhibitory concentration (IC50) in the assay on Rotavirus [1] and in the assay on Rotavirus [2] was 6.25 mM in each case.

For the compound `CO[C@@H]1O[C@@H](CO)[C@@H](O[C@@H]2O[C@@H](CSC(C(=O)O)c3ccccc3)[C@H](O)[C@H](O)[C@@H]2O)[C@H](O)[C@@H]1O` (stereo partly specified), the IC50 in the assay on Rotavirus [1] came out at 12.5 mM; in the assay on Rotavirus [2] it was 25 mM. In the case of `CO[C@@H]1O[C@@H](CO)[C@@H](O[C@@H]2O[C@@H](CSC(C)C(=O)O)[C@H](O)[C@H](O)[C@@H]2O)[C@H](O)[C@@H]1O` (stereo partly specified), the IC50 in the assay with Rotavirus [1] came out at 12.5 mM; in the assay with Rotavirus [2] it was 6.25 mM.
